We go through two compounds from patent US7718638B2, “(20R)-23,23-difluoro-2-methylene-19-nor-bishomopregnacalciferol-vitamin D analogs” (Wisconsin Alumni Research Foundation, priority 2007, dated 2010).

Entries after “also recorded” stand apart in the source; their conditions may differ.

One assay has as its system HL-60 cells. The assay is described as follows: HL-60 cell differentiation (nitro blue tetrazolium reduction). The note with it: FIG. 2; for EC50: HL-60 cells, 4 days. It is filed as cell-based, human. The protocol:
The study drugs were dissolved in ethanol and the concentrations determined using UV spectrophotometry. Serial dilutions were prepared so that a range of drug concentrations could be tested without changing the final concentration of ethanol (≦0.2%) present in the cell cultures.
Human promyelocytic leukemia (HL60) cells were grown in RPMI-1640 medium containing 10% fetal bovine serum. The cells were incubated at 37° C. in the presence of 5% CO2.
HL60 cells were plated at 1.2×10^5 cells/ml. Eighteen hours after plating, cells in duplicate were treated with drug. Four days later, the cells were harvested and a nitro blue tetrazolium reduction assay was performed (Collins et al., 1979; J. Exp. Med. 149:969-974). The percentage of differentiated cells was determined by counting a total of 200 cells and recording the number that contained intracellular black-blue formazan deposits. Verification of differentiation to monocytic cells was determined by measuring phagocytic activity (data not shown).

Assay [1] concerns Sprague-Dawley rats. The assay is described as follows: Bone calcium mobilization (serum calcium) in vitamin D-deficient rats. It is filed as in vivo, rat. The following applies: FIG. 4; for bone calcium mobilization (serum calcium levels): dose not given, vitamin D-deficient rats on 0.02% Ca diet; for bone calcium mobilization: rats on 0.02% Ca diet. On the procedure:
(§1) Intestinal Calcium Transport and Bone Calcium Mobilization
(§2) Male, weanling Sprague-Dawley rats were placed on Diet 11 (0.47% Ca) diet+AEK oil for one week followed by Diet 11 (0.02% Ca)+AEK oil for 3 weeks. The rats were then switched to a diet containing 0.47% Ca for one week followed by two weeks on a diet containing 0.02% Ca. Dose administration began during the last week on 0.02% calcium diet. Four consecutive ip doses were given approximately 24 hours apart. Twenty-four hours after the last dose, blood was collected from the severed neck and the concentration of serum calcium determined as a measure of bone calcium mobilization. The first 10 cm of the intestine was also collected for intestinal calcium transport analysis using the everted gut sac method.

Assay [2] deals with Sprague-Dawley rats. The assay is described as follows: Intestinal calcium transport (everted gut sac) in vitamin D-deficient rats. The class given is in vivo, rat. The following applies: FIG. 5; for intestinal calcium transport: everted gut sac. The protocol:
as §1, §2

The target of assay [3] is T1, full-length recombinant rat vitamin D receptor (Rattus norvegicus, UniProt P13053).
T1 construct: Full-length recombinant rat receptor was expressed in E. coli; histidine tag (C); made in house; host or cells: E. coli BL21 (DE3) Codon Plus RIL
T1 sequence (P13053 1-423): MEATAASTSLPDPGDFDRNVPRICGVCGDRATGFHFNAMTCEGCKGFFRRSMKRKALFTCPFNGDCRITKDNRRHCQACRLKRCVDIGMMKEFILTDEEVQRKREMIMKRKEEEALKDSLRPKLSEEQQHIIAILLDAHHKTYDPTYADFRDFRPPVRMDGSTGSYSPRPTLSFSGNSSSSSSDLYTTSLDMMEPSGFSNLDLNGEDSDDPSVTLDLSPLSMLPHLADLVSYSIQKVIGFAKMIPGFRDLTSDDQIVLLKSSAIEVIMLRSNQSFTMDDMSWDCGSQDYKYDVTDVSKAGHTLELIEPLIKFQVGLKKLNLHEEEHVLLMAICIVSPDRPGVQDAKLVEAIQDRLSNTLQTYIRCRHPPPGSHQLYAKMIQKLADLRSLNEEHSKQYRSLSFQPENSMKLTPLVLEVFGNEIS
The assay is described as follows: Vitamin D receptor competitive binding with [3H]-1,25(OH)2D3. The following applies: FIG. 1. The text has this:
Vitamin D Receptor Binding
Full-length recombinant rat receptor was expressed in E. coli BL21 (DE3) Codon Plus RIL cells and purified to homogeneity using two different column chromatography systems. The first system was a nickel affinity resin that utilizes the C-terminal histidine tag on this protein. The protein that was eluted from this resin was further purified using ion exchange chromatography (S-Sepharose Fast Flow). Aliquots of the purified protein were quick frozen in liquid nitrogen and stored at −80° C. until use. For use in binding assays, the protein was diluted in TEDK50 (50 mM Tris, 1.5 mM EDTA, pH 7.4, 5 mM DTT, 150 mM KCl) with 0.1% Chaps detergent. The receptor protein and ligand concentration were optimized such that no more than 20% of the added radiolabeled ligand was bound to the receptor.
Radiolabeled and unlabeled ligands were added to 100 mcl of the diluted protein at a final ethanol concentration of ≦10%, mixed and incubated overnight on ice to reach binding equilibrium. The following day, 100 mcl of hydroxylapatite slurry (50%) was added to each tube and mixed at 10-minute intervals for 30 minutes. […] After the final wash, the pellets were transferred to scintillation vials containing 4 ml of Biosafe II scintillation cocktail, mixed and placed in a scintillation counter. Total binding was determined from the tubes containing only radiolabeled ligand.

For assay [4], the system named is 24-hydroxylase (24Ohase) gene promoter in ROS 17/2.8 (bone) cells. The assay is described as follows: In vitro transcription assay (24-hydroxylase promoter luciferase reporter). It is filed as cell-based. The note with it: FIG. 3. The protocol:
In Vitro Transcription Assay
Transcription activity was measured in ROS 17/2.8 (bone) cells that were stably transfected with a 24-hydroxylase (24Ohase) gene promoter upstream of a luciferase reporter gene (Arbour et al., 1998). Cells were given a range of doses. Sixteen hours after dosing the cells were harvested and luciferase activities were measured using a luminometer.
RLU=relative luciferase units.

As for `C=C1/C(=C\C=C2/CCC[C@]3(C)[C@@H]([C@H](C)CCCC(C)(C)O)CC[C@@H]23)C[C@@H](O)C[C@@H]1O` [1,25(OH)2D3, 1α,25-dihydroxyvitamin D3, reference compound], in the assay on HL-60 cells, the EC50 was found to be 2 nM. Besides, the “bone calcium mobilization (serum calcium levels)” value in the assay with Sprague-Dawley rats [1] is on record as “increased serum calcium levels”. Also, the intestinal calcium transport entry in the assay on Sprague-Dawley rats [2] (87 pmol/day) is “promotes a significant increase”.
With `C=C1[C@H](O)CC(=C/C=C2\CCC[C@]3(C)[C@@H]([C@@H](C)CC(F)F)CC[C@@H]23)C[C@H]1O` [FF-44, (20R)-23,23-difluoro-1α-hydroxy-2-methylene-19-nor-bishomopregnacalciferol], in assay [3] (full-length recombinant rat VDR, read-out: Ki, competition with [3H]-1,25(OH)2D3 for binding to the vitamin D receptor), the Ki was determined as 0.2 nM. The “binding to the vitamin D receptor as compared to 1,25-(OH)2D3” value in assay [3] (in words) is recorded as “bound almost equally”. Further, the concentration giving a half-maximal response (EC50) came out at 100 nM in the assay with HL-60 cells (Homo sapiens, 96 h) and 10 nM in assay [4] (ROS 17/2.8 cells, 24Ohase-luciferase, 16 h, read-out: EC50, transcriptional activity in bone cells). For the same compound, the “potency on HL-60 cell differentiation as compared to 1,25(OH)2D3” value in the assay with HL-60 cells (in words) is “almost as potent as 1,25(OH)2D3”. Also, the “transcriptional activity in bone cells as compared to 1α,25-dihydroxyvitamin D3” value in assay [4] (in words) was “about the same transcriptional activity”. In addition, the bone calcium mobilization entry in the assay with Sprague-Dawley rats [1] (2340 pmol/day ip for 4 consecutive days) is on record as “did not result in mobilization of bone calcium”; in the assay on Sprague-Dawley rats [1] (35100 pmol/day ip for 4 consecutive days), “without any effect”. Also, the “bone calcium mobilization (serum calcium levels)” value with Sprague-Dawley rats [1] was “very little bone calcium mobilization activity; also recorded: little, if any, activity in mobilizing calcium from bone”. Moreover, the values for the intestinal calcium transport entry in the assay on Sprague-Dawley rats [2] (2340 pmol/day) and with Sprague-Dawley rats [2] (35100 pmol/day) were “does not promote intestinal calcium transport” and “no significant intestinal calcium transport activity”, respectively. The “intestinal calcium transport activity as compared to 1,25(OH)2D3” value with Sprague-Dawley rats [2] (in words, dose not stated) was “very little activity”.
